Target: T1, human TLR7 (Homo sapiens, UniProt Q9NYK1)
T1 sequence (Q9NYK1 27-1049): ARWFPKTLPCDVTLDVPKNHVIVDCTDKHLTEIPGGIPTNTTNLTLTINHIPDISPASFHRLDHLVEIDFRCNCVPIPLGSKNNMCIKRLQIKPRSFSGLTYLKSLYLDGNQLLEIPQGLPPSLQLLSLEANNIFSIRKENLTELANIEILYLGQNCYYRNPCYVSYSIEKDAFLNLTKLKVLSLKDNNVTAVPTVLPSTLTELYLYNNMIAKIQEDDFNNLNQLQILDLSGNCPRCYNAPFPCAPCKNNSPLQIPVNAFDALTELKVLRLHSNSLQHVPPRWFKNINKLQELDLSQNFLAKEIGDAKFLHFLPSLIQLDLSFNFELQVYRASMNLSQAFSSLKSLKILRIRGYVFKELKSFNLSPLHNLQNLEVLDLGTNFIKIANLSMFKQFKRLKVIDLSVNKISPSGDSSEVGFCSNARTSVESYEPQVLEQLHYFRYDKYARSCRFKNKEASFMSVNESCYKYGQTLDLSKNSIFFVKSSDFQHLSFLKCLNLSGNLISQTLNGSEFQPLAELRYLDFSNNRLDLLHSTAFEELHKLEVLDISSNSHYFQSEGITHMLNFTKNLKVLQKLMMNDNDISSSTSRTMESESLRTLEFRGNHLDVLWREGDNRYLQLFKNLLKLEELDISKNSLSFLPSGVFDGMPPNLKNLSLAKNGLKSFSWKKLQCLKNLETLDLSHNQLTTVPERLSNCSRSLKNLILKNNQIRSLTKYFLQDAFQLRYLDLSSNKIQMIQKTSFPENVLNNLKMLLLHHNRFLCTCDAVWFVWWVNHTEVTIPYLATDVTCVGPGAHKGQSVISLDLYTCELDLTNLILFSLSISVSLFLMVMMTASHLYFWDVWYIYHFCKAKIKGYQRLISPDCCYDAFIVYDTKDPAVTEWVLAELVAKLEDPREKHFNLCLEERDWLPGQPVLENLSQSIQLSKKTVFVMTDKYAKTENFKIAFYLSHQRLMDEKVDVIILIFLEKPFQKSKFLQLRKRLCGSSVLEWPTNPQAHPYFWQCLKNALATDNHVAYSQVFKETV
Assay: HEK293-Blue-hTLR-7 cells assay (SEAP reporter, R848 stimulation)
Type: cell-based
Details: HEK293-Blue-hTLR7 cells, R848, 20 hrs; lowest tested concentration 0.0032
Protocol: The following tests were carried out in order to determine the activity of the compounds of this invention in HEK293-Blue-hTLR-7/8/9 cells assay.
HEK293-Blue-hTLR-7 Cells Assay:
A stable HEK293-Blue-hTLR-7 cell line was purchased from InvivoGen (Cat. #: hkb-htlr7, San Diego, Calif., USA). These cells were originally designed for studying the stimulation of human TLR7 by monitoring the activation of NF-κB. A SEAP (secreted embryonic alkaline phosphatase) reporter gene was placed under the control of the IFN-β minimal promoter fused to five NF-κB and AP-1-binding sites. The SEAP was induced by activating NF-κB and AP-1 via stimulating HEK-Blue hTLR7 cells with TLR7 ligands. Therefore the reporter expression was declined by TLR7 antagonist under the stimulation of a ligand, such as R848 (Resiquimod), for incubation of 20 hrs. The cell culture supernatant SEAP reporter activity was determined using QUANTI-Blue™ kit (Cat. #: rep-qb1, Invivogen, San Diego, Calif., USA) at a wavelength of 640 nm, a detection medium that turns purple or blue in the presence of alkaline phosphatase.
HEK293-Blue-hTLR7 cells were incubated at a density of 250,000˜450,000 cells/mL in a volume of 170 μL in a 96-well plate in Dulbecco's Modified Eagle's medium (DMEM) containing 4.5 g/L glucose, 50 U/mL penicillin, […], […], 2 mM L-glutamine, 10% (v/v) heat-inactivated fetal bovine serum with addition of 20 μL test compound in a serial dilution in the presence of final DMSO at 1% and 10 μL of 20 uM R848 in above DMEM, perform incubation under 37° C. in a CO2 incubator for 20 hrs. Then 20 μL of the supernatant from each well was incubated with 180 μL Quanti-blue substrate solution at 37° C. for 2 hrs and the absorbance was read at 620-655 nm using a spectrophotometer. The signalling pathway that TLR7 activation leads to downstream NF-κB activation has been widely accepted, and therefore similar reporter assay was modified for evaluating TLR7 antagonist.

| Structure (SMILES) | IC50 [nM] |
| --- | --- |
| C[C@H]1C[C@@H](NCc2ccc(N3CCNCC3)cc2)CN(c2ccc(C#N)c3ncccc23)C1 [Example 1, 5-[(3S,5R)-3-methyl-5-[(4-piperazin-1-ylphenyl)methylamino]1-piperidyl]quinoline-8-carbonitrile] | 16 |
| C[C@H]1C[C@@H](NCc2ccc(C3CCNCC3)cc2)CN(c2ccc(C#N)c3ncccc23)C1 [Example 2, 5-[(3S,5R)-3-methyl-5-[[4-(4-piperidyl)phenyl]methylamino]-1-piperidyl]quinoline-8-carbonitrile] | 32 |
| C[C@H]1C[C@@H](NCc2ccc(N3CCNCC3)cc2)CN(c2ccc(C#N)c3nccnc23)C1 [Example 3, 8-[(3S,5R)-3-methyl-5-[(4-piperazin-1-ylphenyl)methylamino]-1-piperidyl]quinoxaline-5-carbonitrile] | 30 |
| C[C@H]1C[C@@H](NCc2ccc(N3CCNCC3)cc2F)CN(c2ccc(C#N)c3ncccc23)C1 [Example 4, 5-[(3R,58)-3-[(2-fluoro-4-piperazin-1-yl-phenyl)methylamino]-5-methyl-1-piperidyl]quinoline-8-carbonitrile] | 13 |
| C[C@H]1C[C@@H](NCc2ccc(N3CCNCC3)cn2)CN(c2ccc(C#N)c3ncccc23)C1 [Example 5, 5-[(3S,5R)-3-methyl-5-[(5-piperazin-1-yl-2-pyridyl)methylamino]-1-piperidyl]quinoline-8-carbonitrile] | 17 |
| C[C@H]1C[C@@H](NCc2cccc(N3CCN(C)CC3)c2)CN(c2ccc(C#N)c3ncccc23)C1 [Example 6, 5-[(3S,5R)-3-methyl-5-[[3-(4-methylpiperazin-1-yl)phenyl]methylamino]-1-piperidyl]quinoline-8-carbonitrile] | 42 |
| C[C@H]1C[C@@H](NCc2ccc(N3CCN(C)CC3)cc2)CN(c2ccc(C#N)c3ncccc23)C1 [Example 7, 5-[(3S,5R)-3-methyl-5-[[4-(4-methylpiperazin-1-yl)phenyl]methylamino]-1-piperidyl]quinoline-8-carbonitrile] | 16 |
| C[C@H]1C[C@@H](NCc2cccc(N3CCNCC3)c2)CN(c2ccc(C#N)c3ncccc23)C1 [Example 8, 5-[(3S,5R)-3-methyl-5-[(3-piperazin-1-ylphenyl)methylamino]-1-piperidyl]quinoline-8-carbonitrile] | 39 |
| C[C@H]1C[C@@H](N(C)Cc2ccc(N3CCNCC3)cc2)CN(c2ccc(C#N)c3ncccc23)C1 [Example 9, 5-[(3S,5R)-3-methyl-5-[methyl-[(4-piperazin-1-ylphenyl)methyl]amino]-1-piperidyl]quinoline-8-carbonitrile] | 15 |
| C[C@H]1C[C@@H](NCc2ccc(N3CCNCC3)nc2)CN(c2ccc(C#N)c3ncccc23)C1 [Example 10] | 7 |
| C[C@H]1C[C@@H](NCc2ccc3c(c2)CCNC3)CN(c2ccc(C#N)c3ncccc23)C1 [Example 11, 5-[(3S,5R)-3-methyl-5-(1,2,3,4-tetrahydroisoquinolin-6-ylmethylamino)-1-piperidyl]quinoline-8-carbonitrile] | 15 |
| C[C@H]1C[C@@H](N2Cc3ccc(N4CCNCC4)cc3C2)CN(c2ccc(C#N)c3ncccc23)C1 [Example 12, 5-[(3S,5R)-3-methyl-5-(5-piperazin-1-ylisoindolin-2-yl)-1-piperidyl]quinoline-8-carbonitrile] | 7 |

Continued, values first:

| IC50 [nM] | Structure (SMILES) |
| --- | --- |
| 52 | C[C@H]1C[C@@H](N2CCc3cc(N4CCNCC4)ccc3C2)CN(c2ccc(C#N)c3ncccc23)C1 (relative stereo) [Example 24, 5-[cis-3-methyl-5-(6-piperazin-1-yl-3,4-dihydro-1H-isoquinolin-2-yl)-1-piperidyl]quinoline-8-carbonitrile] |
| 19 | C[C@H]1C[C@@H](NCc2ccc(N3CCC(N)C3)cc2)CN(c2ccc(C#N)c3ncccc23)C1 (stereo partly drawn) [Example 13, 5-[(3R,5S)-3-[[4-(3-aminopyrrolidin-1-yl)phenyl]methylamino]-5-methyl-1-piperidyl]quinoline-8-carbonitrile] |
| 84 | Cc1cc(-c2ccc(CN[C@@H]3C[C@H](C)CN(c4ccc(C#N)c5ncccc45)C3)cc2)cc(C)n1 [Example 15, 5-[(3R,5S)-3-[[4-(2,6-dimethyl-4-pyridyl)phenyl]methylamino]-5-methyl-1-piperidyl]quinoline-8-carbonitrile] |
| 11 | C[C@H]1C[C@@H](NCc2cnc(N3CCN(C)CC3)nc2)CN(c2ccc(C#N)c3ncccc23)C1 [Example 16, 5-[(3S,5R)-3-methyl-5-[[2-(4-methylpiperazin-1-yl)pyrimidin-5-yl]methylamino]-1-piperidyl]quinoline-8-carbonitrile] |
| 7 | C[C@H]1C[C@@H](NCc2cnc(N3CCNCC3)nc2)CN(c2ccc(C#N)c3ncccc23)C1 [Example 17, 5-[(3S,5R)-3-methyl-5-[(2-piperazin-1-ylpyrimidin-5-yl)methylamino]-1-piperidyl]quinoline-8-carbonitrile] |
| 11 | C[C@H]1C[C@@H](NCc2ccc(N3CCN(C)CC3)cn2)CN(c2ccc(C#N)c3ncsc23)C1 [Example 18, 7-[(3S,5R)-3-methyl-5-[[5-(4-methylpiperazin-1-yl)-2-pyridyl]methylamino]-1-piperidyl]-1,3-benzothiazole-4-carbonitrile] |
| 63 | C[C@H]1C[C@@H](NCc2ccc(N3CCNCC3)cc2)CN(c2ccc(C#N)n3nccc23)C1 [Example 21, 4-[(3S,5R)-3-methyl-5-[(4-piperazin-1-ylphenyl)methylamino]-1-piperidyl]pyrazolo[1,5-a]pyridine-7-carbonitrile] |
| 23 | C[C@H]1C[C@@H](NCc2ccc(N3CCNCC3)cc2)CN(c2ccc(Cl)c3ncccc23)C1 [Example 22, (3R,5S)-1-(8-chloro-5-quinolyl)-5-methyl-N-[(4-piperazin-1-ylphenyl)methyl]piperidin-3-amine] |
| 23 | C[C@H]1C[C@@H](N2Cc3cc(N4CCNCC4)cnc3C2)CN(c2ccc(C#N)c3ncccc23)C1 [Example 23, 5-[(3S,5R)-3-methyl-5-(3-piperazin-1-yl-5,7-dihydropyrrolo[3,4-b]pyridin-6-yl)-1-piperidyl]quinoline-8-carbonitrile] |
| 15 | C[C@H]1C[C@@H](NCc2ncc(N3CCNCC3)cn2)CN(c2ccc(C#N)c3ncccc23)C1 [Example 25, 5-[(3S,5R)-3-methyl-5-[(5-piperazin-1-ylpyrimidin-2-yl)methylamino]-1-piperidyl]quinoline-8-carbonitrile] |
| 91 | CC(N[C@@H]1C[C@H](C)CN(c2ccc(C#N)c3ncccc23)C1)c1ccc(N2CCNCC2)cc1 (stereo partly drawn) [Example 26, 5-[(3S,5R)-3-methyl-5-[1-(4-piperazin-1-ylphenyl)ethylamino]-1-piperidyl]quinoline-8-carbonitrile] |
| 12 | C[C@H]1C[C@@H](NCc2cnc(N3CCN[C@H](C)C3)nc2)CN(c2ccc(C#N)c3ncccc23)C1 [Example 28, 5-[(3S,5R)-3-methyl-5-[[2-[(3R)-3-methylpiperazin-1-yl]pyrimidin-5-yl]methylamino]-1-piperidyl]quinoline-8-carbonitrile] |

Reference: patent US20220395496A1 (Hoffmann-La Roche Inc., priority 2019, published 2022)
